From patent publication US20150031668A1, “CHROMAN DERIVATIVES AS TRPM8 INHIBITORS” (AMGEN INC., priority 2013, published 2015)

Biological target: T1, human TRPM8 (Homo sapiens, UniProt Q7Z2W7)
T1 construct: expressed in transfected cells; host or cells: Chinese hamster ovary (CHO) cells, T-REx tetracycline-inducible expression system (Invitrogen); co-transfected with pcDNA3.1 aequorin
Assay: Luminescence readout assay for measuring intracellular calcium (aequorin, CHO cells expressing human TRPM8; icilin, L-menthol or cold activation)
Assay type: cell-based
Conditions: CHO cells expressing human TRPM8, icilin activation (1 μM), aequorin luminescence; read-out: hTRPM8 IC50
Experimental: Luminescence Readout Assay for Measuring Intracellular Calcium
A stable Chinese hamster ovary cell line expressing human TRPM8 was generated using tetracycline inducible T-REx™ expression system from Invitrogen, Inc. (Carlsbad, Calif.). […] Twenty four hours before the assay, cells were seeded in 96-well plates and TRPM8 expression was induced with 0.5 μg/ml tetracycline. On the day of the assay, culture media was removed and cells were incubated with assay buffer
Potential antagonists were added 2.5 min prior to the addition of agonist, 1 μM icilin, 100 μM L-menthol, or 1 min prior to the addition of cold buffer (<10° C.). The luminescence was measured by a CCD camera based FLASH-luminometer built by Amgen, Inc. A cooling device attached to FLASH luminometer was used for cold activation.

T1 sequence (Q7Z2W7 whole entry): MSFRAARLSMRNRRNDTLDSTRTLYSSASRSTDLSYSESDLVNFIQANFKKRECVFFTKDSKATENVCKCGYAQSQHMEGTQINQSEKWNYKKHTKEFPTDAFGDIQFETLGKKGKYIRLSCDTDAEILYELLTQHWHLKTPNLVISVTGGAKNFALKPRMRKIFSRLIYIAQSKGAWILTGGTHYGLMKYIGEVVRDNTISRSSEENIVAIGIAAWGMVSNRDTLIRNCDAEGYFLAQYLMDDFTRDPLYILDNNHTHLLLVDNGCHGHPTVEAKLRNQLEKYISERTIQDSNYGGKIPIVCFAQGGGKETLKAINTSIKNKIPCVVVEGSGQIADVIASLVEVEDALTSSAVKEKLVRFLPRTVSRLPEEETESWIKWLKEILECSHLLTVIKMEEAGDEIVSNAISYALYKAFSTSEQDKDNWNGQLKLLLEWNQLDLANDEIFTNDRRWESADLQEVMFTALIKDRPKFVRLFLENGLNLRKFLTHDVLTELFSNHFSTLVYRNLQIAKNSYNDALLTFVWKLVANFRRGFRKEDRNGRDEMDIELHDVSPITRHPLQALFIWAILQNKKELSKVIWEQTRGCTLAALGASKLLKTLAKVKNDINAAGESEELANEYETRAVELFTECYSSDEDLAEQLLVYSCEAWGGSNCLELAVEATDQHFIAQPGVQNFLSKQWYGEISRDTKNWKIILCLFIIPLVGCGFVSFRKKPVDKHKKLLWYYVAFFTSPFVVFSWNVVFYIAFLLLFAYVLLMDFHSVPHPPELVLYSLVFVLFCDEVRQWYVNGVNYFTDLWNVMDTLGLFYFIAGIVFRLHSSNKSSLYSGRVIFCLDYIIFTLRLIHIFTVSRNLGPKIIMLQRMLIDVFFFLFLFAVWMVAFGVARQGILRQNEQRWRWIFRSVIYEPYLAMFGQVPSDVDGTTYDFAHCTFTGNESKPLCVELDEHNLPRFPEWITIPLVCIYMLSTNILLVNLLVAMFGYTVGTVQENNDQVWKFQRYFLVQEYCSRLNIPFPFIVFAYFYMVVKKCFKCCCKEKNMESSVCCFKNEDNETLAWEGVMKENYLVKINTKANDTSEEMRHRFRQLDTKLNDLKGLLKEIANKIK

O=C(N[C@]1(c2ccc(C(F)(F)F)cc2)CCOc2cccnc21)c1ccnnc1 [Example 37, (S)-N-(4-(4-(trifluoromethyl)phenyl)-3,4-dihydro-2H-pyrano[3,2-b]pyridin-4-yl)pyridazine-4-carboxamide]
IC50: 2620 nM

Cn1ncc2ccc(C(=O)N[C@]3(c4ccc(C(F)(F)F)cc4)CCOc4cccnc43)cc21 [Example 38, (S)-1-methyl-N-(4-(4-(trifluoromethyl)phenyl)-3,4-dihydro-2H-pyrano[3,2-b]pyridin-4-yl)-1H-indazole-6-carboxamide]
IC50: 20 nM

O=C(N[C@]1(c2ccc(C(F)(F)F)cc2)CCOc2cccnc21)c1cncs1 [Example 39, (S)-N-(4-(4-(trifluoromethyl)phenyl)-3,4-dihydro-2H-pyrano[3,2-b]pyridin-4-yl)thiazole-5-carboxamide]
IC50: 269 nM

O=C(N[C@]1(c2ccc(C(F)(F)F)cc2)CCOc2cccnc21)c1ccc(O)cn1 [Example 40, (S)-5-hydroxy-N-(4-(4-(trifluoromethyl)phenyl)-3,4-dihydro-2H-pyrano[3,2-b]pyridin-4-yl)picolinamide]
IC50: 7 nM

O=C(N[C@]1(c2ccc(C(F)(F)F)cc2)CCOc2cccnc21)c1ccns1 [Example 41, (S)-N-(4-(4-(trifluoromethyl)phenyl)-3,4-dihydro-2H-pyrano[3,2-b]pyridin-4-yl)isothiazole-5-carboxamide]
IC50: 87 nM

Cn1ccc2cc(C(=O)N[C@]3(c4ccc(C(F)(F)F)cc4)CCOc4cccnc43)ccc21 [Example 42, (S)-1-methyl-N-(4-(4-(trifluoromethyl)phenyl)-3,4-dihydro-2H-pyrano[3,2-b]pyridin-4-yl)-1H-indole-5-carboxamide]
IC50: 24 nM

CC(=O)Nc1ccc(C(=O)N[C@]2(c3ccc(C(F)(F)F)cc3)CCOc3cccnc32)nc1 [Example 43, (S)-5-acetamido-N-(4-(4-(trifluoromethyl)phenyl)-3,4-dihydro-2H-pyrano[3,2-b]pyridin-4-yl)picolinamide]
IC50: 111 nM

Cn1ncc2cc(C(=O)N[C@]3(c4ccc(C(F)(F)F)cc4)CCOc4cccnc43)ccc21 [Example 44, (S)-1-methyl-N-(4-(4-(trifluoromethyl)phenyl)-3,4-dihydro-2H-pyrano[3,2-b]pyridin-4-yl)-1H-indazole-5-carboxamide]
IC50: 8 nM

O=C(N[C@]1(c2ccc(C(F)(F)F)cc2)CCOc2cccnc21)c1c[nH]c(=O)cn1 [Example 45, (S)-5-oxo-N-(4-(4-(trifluoromethyl)phenyl)-3,4-dihydro-2H-pyrano[3,2-b]pyridin-4-yl)-4,5-dihydropyrazine-2-carboxamide]
IC50: 38 nM

O=C(N[C@]1(c2ccc(C(F)(F)F)cc2)CCOc2cccnc21)c1ccncc1 [Example 46, (S)-N-(4-(4-(trifluoromethyl)phenyl)-3,4-dihydro-2H-pyrano[3,2-b]pyridin-4-yl)isonicotinamide]
IC50: 358 nM

COc1ccc(C(=O)N[C@]2(c3ccc(C(F)(F)F)cc3)CCOc3cccnc32)nn1 [Example 47, (S)-6-methoxy-N-(4-(4-(trifluoromethyl)phenyl)-3,4-dihydro-2H-pyrano[3,2-b]pyridin-4-yl)pyridazine-3-carboxamide]
IC50: 82 nM

O=C(N[C@]1(c2ccc(C(F)(F)F)cc2)CCOc2cccnc21)c1cccnc1 [Example 48, (S)-N-(4-(4-(trifluoromethyl)phenyl)-3,4-dihydro-2H-pyrano[3,2-b]pyridin-4-yl)nicotinamide]
IC50: 481 nM

O=C(N[C@]1(c2ccc(C(F)(F)F)cc2)CCOc2cccnc21)c1ccn2ccnc2c1 [Example 49, (S)-N-(4-(4-(trifluoromethyl)phenyl)-3,4-dihydro-2H-pyrano[3,2-b]pyridin-4-yl)imidazo[1,2-a]pyridine-7-carboxamide]
IC50: 43 nM

O=C(N[C@]1(c2ccc(OC(F)(F)F)c(F)c2)CCOc2cccnc21)c1ccc(O)cn1 [Example 51, (S)-N-(4-(3-fluoro-4-(trifluoromethoxy)phenyl)-3,4-dihydro-2H-pyrano[3,2-b]pyridin-4-yl)-5-hydroxypicolinamide]
IC50: 5 nM
